Legend:
Format in all cases: cell-based
[1] = tested on: lung (A549); test: Cell viability (ATP luminescence) IC50 determination, A549; details: Homo sapiens, A549 cells, 72 hours incubation, vs DMSO vehicle control
Procedure: (§1) In yet another aspect of the instant invention, the IC50 or the half maximal inhibitory concentration of the candidate compounds were determined to assess drug potency and potential dosing regimens for in vivo use. One of ordinary skill in the art is readily able to ascertain such information using commonly known methodologies. As it has been well described in the art, IC50 represents and measures how much of a particular substance/molecule is needed to inhibit some biological process by 50%. In the instant case, the IC50 of the candidate compounds were determined as the concentration that led to a response of 50% compared to the vehicle control cells.
(§2) The cell lines listed are maintained at approximately 5% CO2, 37° C., 95% relative humidity in the media appropriate for that cell line. The cells are sub-cultured every two to three days and plated in clear bottom 96-well plates at a density of 1×10^4 cells/well and incubated at ca. 5% CO2, 37° C. overnight prior to initiation of the assay. To begin cell viability assays, the media in the cell plate (100 μL) is replaced with fresh media (100 μL). The test articles are serially diluted […] in fresh media in duplicate and added to the cells (100 μL) at final sample concentrations of 0.46, 1.37, 4.12, 12.35, 37.04, 111.1, 333.3 and 1000 μM (≤1% DMSO) in a total volume of 200 μL. Wells containing no cells and wells containing cells lysed with 0.1% Triton-X are used for baseline controls. Tamoxifen is used as a known control for each assay and DMSO only will be run as vehicle control. The samples are incubated at ca. 37° C. in humidified 5% CO2 atmosphere for 72 hours. The plate is monitored once a day during the incubation period, paying special attention to the level of confluence. If the cells approach confluence prior to the end of the 72 hour incubation period, the experiment is terminated and cell viability measured as described below.
(§3) Cell viability is determined using a commercially available kit to determine ATP levels by luminescence. Briefly, the cell plate has the media removed and replaced with 100 μL of fresh media, and the buffer and lyophilized substrate are equilibrated to room temperature. The buffer is used to reconstitute the substrate just prior to addition to the wells of the cell plate (100 μL per well). The plate is placed into the Infinite M200 plate reader, allowed to shake for 10 minutes followed by a 10 minute wait period. The plate is then read using an integration time of 0.5 sec with no attenuation.
(§4) The mean baseline controls (wells with Triton X-100 or no cells) are subtracted from the total luminescence to give the net luminescence for that well. This total is compared to the control of DMSO only. An IC50 is calculated as the concentration that led to a response of 50% compared to the vehicle control cells.

[2] = tested on: ovary (Ovcar-3); test: Cell viability (ATP luminescence) IC50 determination, Ovcar-3; details: Homo sapiens, Ovcar-3 cells, 72 hours incubation, vs DMSO vehicle control
Procedure: as §1, §2, §3, §4

[3] = tested on: Pancreas (Capan-1); test: Cell viability (ATP luminescence) IC50 determination, Capan-1; details: Homo sapiens, Capan-1 cells, 72 hours incubation, vs DMSO vehicle control
Procedure: as §1, §2, §3, §4

[4] = tested on: cells lines derived from breast, lung, colon, prostate, endometrial and ovarian cancers; test: In vitro studies of tumor cell growth inhibition in cancer cell lines; details: CYP19 positive (MDA-MB-213 and SK-OV-3) vs CYP19 negative (MCF-7 and NIH:OVCAR-3), where it is reduced

| Structure (SMILES) | IC50 [1] [µM] | IC50 [2] [µM] | IC50 [3] [µM] | in vitro studies of tumor cell growth, by CYP19 status of the cell line [4] |
| --- | --- | --- | --- | --- |
| COC[C@H]1C[C@@H]2[C@H](CC[C@]3(C)C(O)CC[C@@H]23)c2ccc(O)cc21 (stereo partly drawn) [Compound 3, (6S,8R,9S,13S,14S)-6-(methoxymethyl)-13-methyl-7,8,9,11,12,13,14,15,16,17-decahydro-6H-cyclopenta[a]phenanthrene-3,17-diol] | 84 | 94 | 168 |  |
| COC[C@@H]1C[C@@H]2[C@H](CC[C@]3(C)C(O)CC[C@@H]23)c2ccc(O)cc21 (stereo partly drawn) [Compound 4, (6R,8R,9S,13S,14S)-6-(methoxymethyl)-13-methyl-7,8,9,11,12,13,14,15,16,17-decahydro-6H-cyclopenta[a]phenanthrene-3,17-diol] | 70 | 100 | 32 |  |
| C[C@]12CC[C@@H]3c4ccc(O)cc4[C@H](CO)C[C@H]3[C@@H]1CCC2O (stereo partly drawn) [Compound 8, (6R,8R,9S,13S,14S)-6-(hydroxymethyl)-13-methyl-7,8,9,11,12,13,14,15,16,17-decahydro-6H-cyclopenta[a]phenanthrene-3,17-diol] | 184 | 221 | 212 |  |
| COC[C@@H]1C[C@@H]2[C@H](CC[C@]3(C)C(O)CC[C@@H]23)[C@@]2(C)CCC(O)CC12 (stereo partly drawn) [Compound 9, (6R,8R,9S,10R,13S,14S)-6-(methoxymethyl)-10,13-dimethylhexadecahydro-1H-cyclopenta[a]phenanthrene-3,17-diol] | > 1000 | > 1000 | > 1000 |  |
| C[C@]12CC[C@@H]3c4ccc(O)cc4[C@H](CON)C[C@H]3[C@@H]1CCC2O (stereo partly drawn) [Compound 10, (6R,8R,9S,13S,14S)-6-((aminooxy)methyl)-13-methyl-7,8,9,11,12,13,14,15,16,17-decahydro-6H-cyclopenta[a]phenanthrene-3,17-diol] | 170 | 317 | 277 |  |
| CO[C@@H]1C[C@@H]2[C@H](CC[C@]3(C)C(O)CC[C@@H]23)c2ccc(O)cc21 (stereo partly drawn) [Compound 18, (6R,8R,9S,13S,14S)-6-methoxy-13-methyl-7,8,9,11,12,13,14,15,16,17-decahydro-6H-cyclopenta[a]phenanthrene-3,17-diol] | 139 | 207 | 192 |  |
| COCC[C@@H]1C[C@@H]2[C@H](CC[C@]3(C)C(O)CC[C@@H]23)c2ccc(O)cc21 (stereo partly drawn) [Compound 19, (6S,8R,9S,13S,14S)-6-(2-methoxyethyl)-13-methyl-7,8,9,11,12,13,14,15,16,17-decahydro-6H-cyclopenta[a]phenanthrene-3,17-diol] | 80 | 96 | 32 |  |
| COCCCC[C@@H]1C[C@@H]2[C@H](CC[C@]3(C)C(O)CC[C@@H]23)c2ccc(O)cc21 (stereo partly drawn) [Compound 20, (6R,8R,9S,13S,14S)-6-(4-methoxybutyl)-13-methyl-7,8,9,11,12,13,14,15,16,17-decahydro-6H-cyclopenta[a]phenanthrene-3,17-diol] | 34 | 60 | 16 |  |
| COCCCCCC[C@@H]1C[C@@H]2[C@H](CC[C@]3(C)C(O)CC[C@@H]23)c2ccc(O)cc21 (stereo partly drawn) [Compound 21, (6R,8R,9S,13S,14S)-6-(6-methoxyhexyl)-13-methyl-7,8,9,11,12,13,14,15,16,17-decahydro-6H-cyclopenta[a]phenanthrene-3,17-diol] | 17 | 24 | 23 |  |
| CCC(CCCCC[C@@H]1C[C@@H]2[C@H](CC[C@]3(C)C(O)CC[C@@H]23)c2ccc(O)cc21)OC (stereo partly drawn) [Compound 22, (6R,8R,9S,13S,14S)-6-(6-methoxyoctyl)-13-methyl-7,8,9,11,12,13,14,15,16,17-decahydro-6H-cyclopenta[a]phenanthrene-3,17-diol] | 13 | 20 | 22 |  |
| CCCCCCCCCCCCCCCCCC(=O)OC1CC[C@H]2[C@@H]3C[C@@H](COC)c4cc(O)ccc4[C@H]3CC[C@]12C (stereo partly drawn) [Compound 23, (6R,8R,9S,13S,14S)-3-hydroxy-6-(methoxymethyl)-13-methyl-7,8,9,11,12,13,14,15,16,17-decahydro-6H-cyclopenta[a]phenanthren-17-yl stearate] | > 1000 | > 1000 | 775 |  |
| COC[C@@H]1C[C@@H]2[C@H](CC[C@]3(C)C(=O)CC[C@@H]23)[C@@]2(C)C=CC(=O)C=C12 [Compound 24, (6R,8R,9S,10R,13S,14S)-6-(methoxymethyl)-10,13-dimethyl-7,8,9,10,11,12,13,14,15,16-decahydro-3H-cyclopenta[a]phenanthrene-3,17(6H)-dione] |  |  |  | highest in cell lines that are CYP19 positive |
| CCCOCCCC[C@@H]1C[C@@H]2[C@H](CC[C@]3(C)C(O)CC[C@@H]23)c2ccc(O)cc21 (stereo partly drawn) [Compound 30, (6R,8R,9S,13S,14S)-13-methyl-6-(4-propoxybutyl)-7,8,9,11,12,13,14,15,16,17-decahydro-6H-cyclopenta[a]phenanthrene-3,17-diol] | 5 | 29 | 10 |  |
| CCOCCCCC[C@@H]1C[C@@H]2[C@H](CC[C@]3(C)C(O)CC[C@@H]23)c2ccc(O)cc21 (stereo partly drawn) [Compound 31, (6R,8R,9S,13S,14S)-13-methyl-6-(5-ethoxypentyl)-7,8,9,11,12,13,14,15,16,17-decahydro-6H-cyclopenta[a]phenanthrene-3,17-diol] | 7 | 28 | 15 |  |

From patent US10174070B2, “6-substituted estradiol derivatives and methods of use” (Endece LLC, priority 2005, dated 2019)
